The values that follow come from patent US20090043129A1 (priority 2005, published 2009).

The term melting point denotes the temperature of the solid-liquid transition. Usually Ki stands for a dissociation constant, usually derived from enzyme kinetics or from competition with a known ligand.

Data set [1] concerns the target T1, CB1 (Rattus norvegicus, UniProt P20272).
T1 construct: from tissue; host or cells: rat brain membranes
In words: Preliminary selection with rat brain membranes. The class given is binding. As to conditions: rat brain and spleen membranes, read-out: CB1 (n.a. class, IC50 in preliminary selection).

For data set [2], the target named is T2, CB2 (Rattus norvegicus, UniProt Q9QZN9).
T2 construct: from tissue; host or cells: rat spleen membranes
T2 sequence (Q9QZN9 1-360): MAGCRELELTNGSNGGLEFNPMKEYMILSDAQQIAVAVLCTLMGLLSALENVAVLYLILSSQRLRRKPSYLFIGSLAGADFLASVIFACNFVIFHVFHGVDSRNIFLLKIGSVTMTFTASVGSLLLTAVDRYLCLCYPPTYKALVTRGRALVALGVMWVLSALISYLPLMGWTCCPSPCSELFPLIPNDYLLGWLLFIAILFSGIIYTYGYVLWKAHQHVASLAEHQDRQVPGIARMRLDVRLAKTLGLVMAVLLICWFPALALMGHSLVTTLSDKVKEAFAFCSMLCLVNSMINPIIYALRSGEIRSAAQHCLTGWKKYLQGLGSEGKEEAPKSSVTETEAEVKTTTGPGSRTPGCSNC
Kind of data set: Preliminary selection with rat spleen membranes. The class given is binding. The settings on record: rat brain and spleen membranes, read-out: CB2 (n.a. class, IC50 in preliminary selection).

In data set [3] the target is T3, human recombinant CB2 receptor (Homo sapiens, UniProt P34972). In words: CB2 binding, [3H]CP55,940 displacement, membranes from transfected COS cells. Further details: purchased Perkin-Elmer; host or cells: COS cells.
T3 sequence (P34972 whole entry): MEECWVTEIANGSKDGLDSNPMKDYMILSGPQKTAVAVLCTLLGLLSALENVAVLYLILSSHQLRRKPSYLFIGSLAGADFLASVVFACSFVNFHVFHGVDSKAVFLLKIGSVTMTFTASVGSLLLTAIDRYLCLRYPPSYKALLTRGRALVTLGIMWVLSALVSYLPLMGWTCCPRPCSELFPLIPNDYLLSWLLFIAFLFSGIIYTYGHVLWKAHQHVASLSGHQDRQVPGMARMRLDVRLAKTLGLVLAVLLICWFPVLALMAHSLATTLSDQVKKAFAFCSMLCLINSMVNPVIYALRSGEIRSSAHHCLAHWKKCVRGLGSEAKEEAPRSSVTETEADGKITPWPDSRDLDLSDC
Data set [4] addresses T4, human recombinant CB1 receptor (Homo sapiens, UniProt P21554). The class given is binding. Also on record: purchased Perkin-Elmer; host or cells: COS cells.
For data set [5], the system named is Anandamide Membrane Transporter (AMT). In words: Anandamide uptake by RBL-2H3 cells. The class given is cell-based. The protocol:
Assay for the Anandamide Membrane Transporter (AMT)
The effect of the compounds on the uptake of anandamide by the RBL-2H3 cells was studied as described (Di Marzo et al., 2002). Cells were incubated with [^14C]anandamide (4 μM) for 5 minutes at 37° C., in the presence or absence of varying concentrations of the inhibitors. Residual [^14C]anandamide in the incubation media after extraction with CHCl3/CH3OH (2:1 by volume) was used as a measure of the anandamide that was taken up by cells. Data are expressed as the concentration that produces 50% of inhibition of anandamide uptake (IC50) calculated with GraphPad.

In data set [6] the target is T5, Fatty Acid Amide Hydrolase (FAAH) (Rattus norvegicus, UniProt P97612).
T5 sequence (P97612 1-579): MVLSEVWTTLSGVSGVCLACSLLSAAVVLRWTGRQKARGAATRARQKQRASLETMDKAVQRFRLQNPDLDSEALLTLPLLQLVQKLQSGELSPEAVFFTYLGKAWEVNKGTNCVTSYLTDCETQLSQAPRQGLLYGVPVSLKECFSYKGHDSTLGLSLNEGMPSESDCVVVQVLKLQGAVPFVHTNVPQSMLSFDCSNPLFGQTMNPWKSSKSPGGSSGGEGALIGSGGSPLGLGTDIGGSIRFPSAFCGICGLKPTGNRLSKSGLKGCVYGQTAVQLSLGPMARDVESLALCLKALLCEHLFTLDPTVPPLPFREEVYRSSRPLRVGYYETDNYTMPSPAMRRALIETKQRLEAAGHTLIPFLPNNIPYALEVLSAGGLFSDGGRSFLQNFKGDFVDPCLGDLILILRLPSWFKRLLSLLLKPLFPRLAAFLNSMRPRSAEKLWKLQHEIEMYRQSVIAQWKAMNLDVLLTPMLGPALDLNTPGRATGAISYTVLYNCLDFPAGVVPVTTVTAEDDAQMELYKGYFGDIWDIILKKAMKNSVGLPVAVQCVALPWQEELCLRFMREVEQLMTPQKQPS
In words: biochemical. The method, then: Assay for Fatty Acid Amide Hydrolase (FAAH)
The effect of compounds on the enzymatic hydrolysis of [^14C]anandamide (6 μM) was studied using membranes prepared from rat brain incubated with increasing concentrations of compounds in 50 mM Tris-HCl, pH 9, for 30 minutes at 37° C. (Di Marzo et al., 2002). [^14C]ethanolamine produced from [^14C]anandamide hydrolysis was measured counting the scintillation of the aqueous phase after extraction of the incubation mixture with 2 volumes of CHCl3/CH3OH (2:1 by volume). […]

Data set [7] concerns the target T6, CB1 cannabinoid receptors (Mus musculus, UniProt P47746).
T6 construct: N18TG2 mouse neuroblastoma cells, which constitutively and selectively express the CB 1 cannabinoid receptors; endogenous in cells; host or cells: N18TG2 mouse neuroblastoma cells
Kind of data set: Forskolin-induced cyclic AMP in N18TG2 neuroblastoma cells. The class given is cell-based. The settings on record: N18TG2 cells. The method, then:
(§1) After incubation, 800 μl of methanol were added, cells were extracted and cyclic AMP was determined with a cyclic AMP assay kit (Amersham, UK), in accordance with the supplier's recommendations.

Data set [8] deals with T7, CB1 receptors (Mus musculus, UniProt P47746).
T7 construct: using mouse brain membranes containing CB1 receptors; from tissue; host or cells: mouse brain membranes
T7 sequence (P47746 whole entry): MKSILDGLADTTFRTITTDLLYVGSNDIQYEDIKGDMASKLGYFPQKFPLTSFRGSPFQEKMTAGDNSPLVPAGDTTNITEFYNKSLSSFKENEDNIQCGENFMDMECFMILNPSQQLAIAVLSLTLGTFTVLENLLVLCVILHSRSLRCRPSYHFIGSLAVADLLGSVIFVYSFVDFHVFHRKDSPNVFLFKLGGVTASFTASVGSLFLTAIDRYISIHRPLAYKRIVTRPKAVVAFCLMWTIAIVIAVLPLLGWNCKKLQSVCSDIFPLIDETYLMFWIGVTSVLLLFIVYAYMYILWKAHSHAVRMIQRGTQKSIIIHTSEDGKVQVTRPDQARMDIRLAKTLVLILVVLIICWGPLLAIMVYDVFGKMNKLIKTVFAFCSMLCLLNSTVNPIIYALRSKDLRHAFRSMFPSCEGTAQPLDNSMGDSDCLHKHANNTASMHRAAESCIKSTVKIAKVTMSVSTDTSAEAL
In words: [35S]GTP-γ-S binding, mouse brain membranes. The class given is biochemical. The method, then:
These assays were performed as previously described (Thomas et al., 2005), using mouse brain membranes containing CB1 receptors or CHO cells stably over-expressing the human recombinant CB2 receptor (10 μg/ml protein), 0.7 nM [^35S]GTP-γ-S and 320 μM GDP, and a final assay volume of 250 μl. Results were compared to the potent CB1 and CB2 receptor agonist CP55940, purchased from Cayman Chemicals, Ann Arbour, Mich., USA.
Background: Binding of GTPγS marks nucleotide exchange on a G protein.

Data set [9] deals with T3, human recombinant CB2 receptor. Kind of data set: Forskolin-induced cAMP formation in CHO cells over-expressing hCB2. The class given is cell-based. Further details: expressed in transfected cells; host or cells: CHO cells (stably over-expressing). As to conditions: CHO hCB2. The protocol: as §1
Data set [10] has as its target T4, human recombinant CB1 receptor. Kind of data set: Forskolin-induced cAMP formation in CHO cells over-expressing hCB1. Further details: expressed in transfected cells; host or cells: CHO cells. The class given is cell-based. As to conditions: read-out: hCB1 EC50. The method, then:
as §1
For orientation: Cyclic AMP is a second messenger, typically raised through Gs and lowered through Gi signalling.

Data set [11] deals with T3, human recombinant CB2 receptor. Kind of data set: [35S]GTP-γ-S binding, CHO cells over-expressing hCB2. The class given is biochemical. Further details: expressed in transfected cells; host or cells: CHO cells (stably over-expressing). From the text:
Results were compared to the potent CB1 and CB2 receptor agonist CP55940, purchased from Cayman Chemicals, Ann Arbour, Mich., USA.

Setting [12] is: recombinant human CB2, COS cell membranes.
[13] abbreviates: recombinant human CB1, COS cell membranes.
Setting [14] is: anandamide uptake, read-out: AMT IC50.
The mark [15] stands for this setting: rat brain membranes, read-out: FAAH (n.a. class).
[16] abbreviates: rat brain membranes, [14C]anandamide 6 μM, read-out: FAAH IC50.

Where two headings read alike, the source gives them in different places. Bounds are passed on as bounds.

T1 sequence (P20272 whole entry): as the sequence (P47746 whole entry) above, with D95E counted along it
T4 sequence (P21554 whole entry): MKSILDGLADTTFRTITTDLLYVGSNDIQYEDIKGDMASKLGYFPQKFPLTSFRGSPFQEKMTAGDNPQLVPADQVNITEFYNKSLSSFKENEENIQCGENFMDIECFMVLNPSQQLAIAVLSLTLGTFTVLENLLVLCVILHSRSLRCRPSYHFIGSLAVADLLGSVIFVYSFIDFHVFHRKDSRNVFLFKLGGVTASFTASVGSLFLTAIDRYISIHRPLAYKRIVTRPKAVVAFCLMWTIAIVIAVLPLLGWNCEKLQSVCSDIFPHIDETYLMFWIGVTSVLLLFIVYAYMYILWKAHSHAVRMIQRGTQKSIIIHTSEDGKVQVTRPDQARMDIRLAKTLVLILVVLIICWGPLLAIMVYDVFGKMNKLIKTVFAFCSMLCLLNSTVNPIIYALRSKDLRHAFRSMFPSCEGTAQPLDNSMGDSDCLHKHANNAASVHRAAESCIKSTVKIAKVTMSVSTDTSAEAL
T6 sequence (P47746 whole entry): as the sequence (P47746 whole entry) above

`CCCCCCc1ccc(OCCCCCCCCCCCCCCCC(=O)NC2CC2)cc1O` [Compound 46, 16-(3-Hydroxy-4-hexyl-phenoxy)-hexadecanoic acid cyclopropylamide]: the melting point came out at 114.3 °C. The IC50 in [1] is above 10 µM. The IC50 in [2] was above 10 µM.
`CCCCCc1cc(O)cc(OCCCCCCCCCCC(=O)Nc2ccc(O)cc2)c1` [Compound 26, 11-(3-Hydroxy-5-pentyl-phenoxy)-undecanoic acid (4-hydroxy-phenyl)-amide]: the Ki worked out at 1400 nM in [3] (setting [12]) and 3000 nM in [4] (setting [13]). The IC50 in [5] (read-out: AMT (n.a. class)) and in data set [6] was above 10 µM throughout.
Consider `CCCCCCc1ccc(O)cc1OCCCCCCCCCCC(=O)NCCO` [Compound 51, 11-(2-Hexyl-5-hydroxy-phenoxy)-undecanoic acid (2-hydroxy-ethyl)-amide], for which the melting point is 75.4 °C. Also, the Ki in [3] (setting [12]) was 420 nM. In addition, the IC50 in [5] (setting [14]) is above 25 µM. In addition, in data set [6], the IC50 is above 10 µM.
Turning to `CCCCCCc1ccc(O)cc1OCCCCCCCCCCCCCCCC(=O)NCCO` [Compound 54, 16-(2-Hexyl-5-hydroxy-phenoxy)-hexadecanoic acid (2-hydroxy-ethyl)-amide], the melting point stood at 77.2 °C. Moreover, the IC50 in data set [1] is above 10 µM. In addition, the IC50 in data set [2] is above 10 µM.
`CCCCCCc1ccc(OCCCCCCCCCCC(=O)NCCO)cc1O` [Compound 42, 11-(3-Hydroxy-4-hexyl-phenoxy)-undecanoic acid (2-hydroxy-ethyl)-amide] registered a melting point of 85.3 °C. In addition, the inhibition constant (Ki) in [3] (setting [12]) was 2700 nM. For the same molecule, the IC50 in data set [5] (read-out: AMT (n.a. class)) is above 10 µM. Moreover, the IC50 in [6] (setting [15]) is above 10 µM.
As to `CCCCCCc1ccc(OCCCCCCCCCCCCCCCC(=O)NCCO)cc1O` [Compound 45, 16-(3-Hydroxy-4-hexyl-phenoxy)-hexadecanoic acid (2-hydroxy-ethyl)-amide], the melting point stood at 96.4 °C. Besides, the IC50 in data set [1] was above 10 µM. The IC50 in data set [2] was above 10 µM.
As to `CCCCCCc1ccc(OCCCCCC(=O)NC2CC2)cc1O` [Compound 40, 6-(3-Hydroxy-4-hexyl-phenoxy)-hexanoic acid cyclopropylamide], the melting point was 134.2 °C. For the same molecule, in [3] (setting [12]), the inhibition constant Ki was found to be 540 nM. For the same molecule, in data set [4] (setting [13]), the inhibition constant (Ki) came out at 180 nM. In addition, in [6] (setting [15]), the IC50 is above 10 µM. Further, the “functional behaviour at CB1 receptors” value in [7] (cAMP) is listed as “inverse agonist/antagonist”. Also, the EC50 in data set [7] (forskolin 1 μM, read-out: half-maximum effect concentration, stimulation of forskolin-induced cAMP formation) was 0.15 µM.
Regarding `CCCCCCc1ccc(O)cc1OCCCCCCCCCCC(=O)Nc1ccc(O)cc1` [Compound 53, 11-(2-Hexyl-5-hydroxy-phenoxy)-undecanoic acid (4-hydroxy-phenyl)-amide], the melting point came out at 108.7 °C. In data set [3] (setting [12]), the Ki amounted to 2110 nM. In data set [4], the inhibition constant (Ki) turned out to be 3300 nM. Besides, in data set [5] (setting [14]), the IC50 was above 25 µM. Further, in [6] (setting [16]), the IC50 was found to be 18 µM.
`O=C(CCCCCCCCCCOc1cccc(O)c1)Nc1ccc(O)cc1` [Compound 35, 11-(3-Hydroxy-phenoxy)-undecanoic acid (4-hydroxy-phenyl)-amide] had a melting point of 121.2 °C. The IC50 in data set [1] is above 10 µM.
In turn, `CCCCCCc1ccc(OCCCCCCCCCCC(=O)Nc2ccc(O)cc2)cc1O` [Compound 44, 11-(3-Hydroxy-4-hexyl-phenoxy)-undecanoic acid (4-hydroxy-phenyl)-amide] returned a melting point of 121.2 °C. Also, the IC50 in [1] was above 10 µM. In addition, the IC50 in data set [5] (setting [14]) was above 25 µM. In addition, the IC50 in data set [6] (setting [16]) amounted to 50 µM.
As to `CCCCCc1cc(O)cc(OCCCCCCCCCCC(=O)NCCO)c1` [Compound 24, 11-(3-Hydroxy-5-pentyl-phenoxy)-undecanoic acid (2-hydroxy-ethyl)-amide], the melting point lay within 55 to 56 °C. Also, the Ki in [3] (setting [12]) amounted to 160 nM. Besides, the inhibition constant Ki in data set [4] (setting [13]) was 800 nM. For the same molecule, the IC50 in data set [5] (setting [14]) was 25 µM. Besides, the IC50 in data set [6] is above 10 µM.
As for `CCCCCCc1ccc(O)cc1OCCCCCCCCCCC(=O)NC1CC1` [Compound 52, 11-(2-Hexyl-5-hydroxy-phenoxy)-undecanoic acid cyclopropylamide], the figures for the inhibitory constant (Ki) in data set [3] (values in nM) and in data set [4] (values in nM) were 30 nM and 210 nM, respectively. The results for the IC50 in [5] (setting [14]) and in data set [8] were 13 µM and 0.1 µM, respectively. Also, the “functional behaviour in GTP-γ-S-binding” value in data set [8] (mouse brain membranes) was “agonist action”. In data set [9] (10 μM, forskolin-induced cAMP formation), the “hCB2 % effect with 10 μM” value came out at 5%. In addition, in data set [9], the “effect on forskolin-induced cAMP formation (in words)” value was “no significant effect”. Moreover, the EC50 in data set [9] (forskolin-induced cAMP formation, read-out: hCB2 EC50) is above 10 µM; in data set [10], 2.4 µM. Also, the “antagonism of CP55940-induced stimulation of GTP-γ-S binding (in words)” value in data set [11] (CHO hCB2) was “block the effect of CP55940”. Also, the “effect on GTP-γ-S-binding (in words)” value in data set [11] (CHO hCB2) was “no significant stimulation or inhibition”. In addition, the “functional behaviour at CB2 receptors” value in [11] (Test 1 and Test 2, CHO hCB2) was “neutral (“silent”) antagonists”.
